Experiment [1] addresses T1, 5-hydroxytryptamine receptor 7 (Homo sapiens, UniProt P34969). Kind of experiment: Displacement of [3H]5-HT from the cloned human 5-HT7 receptor expressed in CHO cells. It counts as cell-based. On the technique in general: Loss of bound radioactivity is the signal in a displacement assay; it reports binding, not function.
Experiment [2] deals with T2, 5-hydroxytryptamine receptor 1A (Homo sapiens, UniProt P08908).
T2 sequence (P08908 whole entry): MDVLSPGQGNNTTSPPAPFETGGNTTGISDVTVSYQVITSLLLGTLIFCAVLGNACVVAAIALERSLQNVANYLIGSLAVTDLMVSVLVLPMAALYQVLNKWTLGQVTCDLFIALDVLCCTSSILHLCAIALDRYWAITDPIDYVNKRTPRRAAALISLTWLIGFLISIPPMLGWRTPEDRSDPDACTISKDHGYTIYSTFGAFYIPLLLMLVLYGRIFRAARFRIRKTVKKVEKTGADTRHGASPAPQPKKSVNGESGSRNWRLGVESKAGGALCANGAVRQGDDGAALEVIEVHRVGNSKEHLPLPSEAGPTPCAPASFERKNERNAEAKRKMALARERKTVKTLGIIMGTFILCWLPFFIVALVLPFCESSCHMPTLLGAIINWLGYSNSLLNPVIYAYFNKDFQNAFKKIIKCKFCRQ
Kind of experiment: Displacement of [3H]5-HT from the cloned human 5-HT1A receptor expressed in HeLa cells. Type of experiment: cell-based.

In experiment [3] the target is T1, 5-hydroxytryptamine receptor 7. Kind of experiment: Activity towards human 5-HT7 receptor at 10 uM relative to 5-CT. It counts as functional.
The target of experiment [4] is 5-hydroxytryptamine receptor 2A (Homo sapiens, UniProt P28223). Briefly: Displacement of [3H]ketanserin from the cloned human 5-HT2A receptor expressed in CHO cells. It counts as cell-based.
Sequence of 5-hydroxytryptamine receptor 2A (P28223 whole entry): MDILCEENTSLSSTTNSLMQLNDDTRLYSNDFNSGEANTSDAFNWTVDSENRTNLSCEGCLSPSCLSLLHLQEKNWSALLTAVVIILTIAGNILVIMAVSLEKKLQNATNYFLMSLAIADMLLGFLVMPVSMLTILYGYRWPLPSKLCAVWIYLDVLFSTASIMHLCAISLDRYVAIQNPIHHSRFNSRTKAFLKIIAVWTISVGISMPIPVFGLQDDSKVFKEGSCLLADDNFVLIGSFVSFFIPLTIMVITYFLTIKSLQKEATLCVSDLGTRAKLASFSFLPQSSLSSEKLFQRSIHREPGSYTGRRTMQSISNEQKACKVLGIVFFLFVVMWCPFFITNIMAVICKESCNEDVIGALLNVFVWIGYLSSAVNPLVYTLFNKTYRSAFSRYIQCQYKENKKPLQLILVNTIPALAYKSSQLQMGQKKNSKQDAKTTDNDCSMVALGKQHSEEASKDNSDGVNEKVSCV
The target in experiment [5] is 5-hydroxytryptamine receptor 1B (Homo sapiens, UniProt P28222). Briefly: Displacement of [3H]5-HT from the cloned human 5-HT1B receptor expressed in CHO cells. Type of experiment: cell-based.
Sequence of 5-hydroxytryptamine receptor 1B (P28222 whole entry): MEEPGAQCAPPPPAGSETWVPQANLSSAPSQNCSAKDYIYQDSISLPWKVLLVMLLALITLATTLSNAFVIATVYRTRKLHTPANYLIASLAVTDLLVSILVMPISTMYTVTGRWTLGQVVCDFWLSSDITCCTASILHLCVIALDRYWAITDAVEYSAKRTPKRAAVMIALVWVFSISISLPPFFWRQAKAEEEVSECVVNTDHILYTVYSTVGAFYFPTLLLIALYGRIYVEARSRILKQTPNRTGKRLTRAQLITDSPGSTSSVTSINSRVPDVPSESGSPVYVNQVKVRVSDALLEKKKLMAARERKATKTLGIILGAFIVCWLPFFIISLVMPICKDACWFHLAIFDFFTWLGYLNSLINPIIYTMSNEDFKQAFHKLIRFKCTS
The target of experiment [6] is D(2) dopamine receptor (Homo sapiens, UniProt P14416). Kind of experiment: Displacement of [3H]spiperone from the cloned human D2 receptor expressed in CHO cells. It counts as cell-based.
Sequence of D(2) dopamine receptor (P14416 whole entry): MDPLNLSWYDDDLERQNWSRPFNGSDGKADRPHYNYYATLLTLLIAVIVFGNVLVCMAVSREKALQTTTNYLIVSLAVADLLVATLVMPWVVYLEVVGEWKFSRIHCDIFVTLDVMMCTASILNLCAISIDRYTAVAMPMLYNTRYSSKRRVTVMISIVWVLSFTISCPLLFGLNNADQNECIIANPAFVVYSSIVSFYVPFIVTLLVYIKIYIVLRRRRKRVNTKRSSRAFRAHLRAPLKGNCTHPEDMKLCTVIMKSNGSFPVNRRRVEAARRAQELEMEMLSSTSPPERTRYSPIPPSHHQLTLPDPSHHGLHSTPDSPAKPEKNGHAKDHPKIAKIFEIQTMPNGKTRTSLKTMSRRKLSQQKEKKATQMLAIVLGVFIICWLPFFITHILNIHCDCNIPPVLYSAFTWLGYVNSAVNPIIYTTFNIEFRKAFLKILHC
In experiment [7] the target is T3, Adrenergic receptor alpha-1 (Rattus norvegicus, UniProt P15823+P23944+P43140).
T3 sequence (P15823 whole entry): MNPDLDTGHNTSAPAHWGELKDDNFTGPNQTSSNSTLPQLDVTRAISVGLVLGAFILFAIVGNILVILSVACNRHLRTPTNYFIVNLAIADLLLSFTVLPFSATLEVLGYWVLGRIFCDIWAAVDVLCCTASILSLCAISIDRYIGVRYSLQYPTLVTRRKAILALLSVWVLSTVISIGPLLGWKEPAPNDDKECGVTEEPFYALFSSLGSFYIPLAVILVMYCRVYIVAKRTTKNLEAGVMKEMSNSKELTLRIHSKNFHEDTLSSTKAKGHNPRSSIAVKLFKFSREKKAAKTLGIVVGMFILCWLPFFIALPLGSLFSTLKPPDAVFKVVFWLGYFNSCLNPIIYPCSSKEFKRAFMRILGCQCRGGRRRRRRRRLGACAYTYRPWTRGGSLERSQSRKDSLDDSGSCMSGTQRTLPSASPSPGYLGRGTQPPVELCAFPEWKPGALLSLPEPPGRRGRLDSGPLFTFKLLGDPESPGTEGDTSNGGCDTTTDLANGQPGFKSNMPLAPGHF
T3 sequence (P23944 whole entry): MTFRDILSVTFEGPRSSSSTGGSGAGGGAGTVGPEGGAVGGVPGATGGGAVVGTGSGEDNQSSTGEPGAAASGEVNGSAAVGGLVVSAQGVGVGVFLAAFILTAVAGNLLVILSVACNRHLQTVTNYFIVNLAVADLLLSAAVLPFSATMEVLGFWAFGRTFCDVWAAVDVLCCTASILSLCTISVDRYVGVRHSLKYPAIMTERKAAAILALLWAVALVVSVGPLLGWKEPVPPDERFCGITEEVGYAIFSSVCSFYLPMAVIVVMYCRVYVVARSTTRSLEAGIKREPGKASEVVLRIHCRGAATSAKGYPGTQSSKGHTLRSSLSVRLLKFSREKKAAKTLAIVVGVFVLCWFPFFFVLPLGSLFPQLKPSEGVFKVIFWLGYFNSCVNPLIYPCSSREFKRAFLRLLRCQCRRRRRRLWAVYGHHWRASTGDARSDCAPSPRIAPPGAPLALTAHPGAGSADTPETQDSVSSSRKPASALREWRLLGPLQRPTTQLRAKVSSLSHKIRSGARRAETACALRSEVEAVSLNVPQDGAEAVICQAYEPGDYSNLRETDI
T3 sequence (P43140 whole entry): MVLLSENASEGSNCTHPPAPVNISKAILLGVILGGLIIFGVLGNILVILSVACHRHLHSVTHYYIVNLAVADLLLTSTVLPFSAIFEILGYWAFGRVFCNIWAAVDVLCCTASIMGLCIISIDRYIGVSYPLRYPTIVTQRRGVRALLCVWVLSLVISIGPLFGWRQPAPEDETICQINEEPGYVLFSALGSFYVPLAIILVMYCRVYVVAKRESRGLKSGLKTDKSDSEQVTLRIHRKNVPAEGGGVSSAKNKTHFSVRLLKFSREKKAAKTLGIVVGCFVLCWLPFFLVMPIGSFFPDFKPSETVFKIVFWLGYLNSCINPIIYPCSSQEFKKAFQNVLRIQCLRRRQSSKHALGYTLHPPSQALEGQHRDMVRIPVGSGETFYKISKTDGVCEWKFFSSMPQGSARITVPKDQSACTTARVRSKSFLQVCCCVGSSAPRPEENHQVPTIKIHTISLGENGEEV
Kind of experiment: Displacement of [3H]prazosin from alpha-1 adrenergic receptor in rat cortex.

Experiment [8] deals with Voltage-gated inwardly rectifying potassium channel KCNH2 (Homo sapiens, UniProt Q12809). Briefly: Displacement of [35S]-labeled MK-499 from cloned human ERG receptor expressed in HEK cells. It counts as cell-based, HEK293.
Sequence of Voltage-gated inwardly rectifying potassium channel KCNH2 (Q12809 whole entry): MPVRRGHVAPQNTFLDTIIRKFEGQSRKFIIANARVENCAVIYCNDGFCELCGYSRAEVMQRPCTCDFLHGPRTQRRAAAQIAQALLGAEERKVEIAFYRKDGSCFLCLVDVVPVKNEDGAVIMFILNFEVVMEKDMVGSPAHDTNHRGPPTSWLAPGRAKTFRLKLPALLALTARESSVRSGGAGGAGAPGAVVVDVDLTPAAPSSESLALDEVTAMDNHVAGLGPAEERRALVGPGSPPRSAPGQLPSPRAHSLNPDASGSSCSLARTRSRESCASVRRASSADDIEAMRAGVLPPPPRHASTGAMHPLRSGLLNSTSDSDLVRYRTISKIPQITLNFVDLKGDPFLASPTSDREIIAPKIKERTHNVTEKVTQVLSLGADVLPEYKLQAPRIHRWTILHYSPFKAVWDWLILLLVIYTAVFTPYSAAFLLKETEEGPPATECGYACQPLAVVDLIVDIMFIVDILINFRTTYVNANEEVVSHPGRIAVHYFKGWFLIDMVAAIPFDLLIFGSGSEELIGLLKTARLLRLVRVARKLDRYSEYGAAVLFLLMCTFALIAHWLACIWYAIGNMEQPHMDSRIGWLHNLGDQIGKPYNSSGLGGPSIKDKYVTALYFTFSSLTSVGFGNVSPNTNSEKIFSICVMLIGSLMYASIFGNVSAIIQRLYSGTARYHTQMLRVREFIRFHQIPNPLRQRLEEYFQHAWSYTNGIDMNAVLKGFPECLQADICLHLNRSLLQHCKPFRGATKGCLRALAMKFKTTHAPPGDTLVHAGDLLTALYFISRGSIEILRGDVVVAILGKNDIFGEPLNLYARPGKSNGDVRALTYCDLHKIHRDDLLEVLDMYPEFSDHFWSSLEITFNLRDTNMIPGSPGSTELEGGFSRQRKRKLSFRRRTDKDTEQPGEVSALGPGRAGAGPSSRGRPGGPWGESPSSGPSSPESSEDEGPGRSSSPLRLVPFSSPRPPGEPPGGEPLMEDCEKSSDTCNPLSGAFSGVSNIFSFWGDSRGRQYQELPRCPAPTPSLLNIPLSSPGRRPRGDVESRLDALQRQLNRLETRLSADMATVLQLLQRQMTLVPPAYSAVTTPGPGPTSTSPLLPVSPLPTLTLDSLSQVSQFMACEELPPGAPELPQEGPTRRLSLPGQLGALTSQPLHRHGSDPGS

T1 sequence (P34969 whole entry): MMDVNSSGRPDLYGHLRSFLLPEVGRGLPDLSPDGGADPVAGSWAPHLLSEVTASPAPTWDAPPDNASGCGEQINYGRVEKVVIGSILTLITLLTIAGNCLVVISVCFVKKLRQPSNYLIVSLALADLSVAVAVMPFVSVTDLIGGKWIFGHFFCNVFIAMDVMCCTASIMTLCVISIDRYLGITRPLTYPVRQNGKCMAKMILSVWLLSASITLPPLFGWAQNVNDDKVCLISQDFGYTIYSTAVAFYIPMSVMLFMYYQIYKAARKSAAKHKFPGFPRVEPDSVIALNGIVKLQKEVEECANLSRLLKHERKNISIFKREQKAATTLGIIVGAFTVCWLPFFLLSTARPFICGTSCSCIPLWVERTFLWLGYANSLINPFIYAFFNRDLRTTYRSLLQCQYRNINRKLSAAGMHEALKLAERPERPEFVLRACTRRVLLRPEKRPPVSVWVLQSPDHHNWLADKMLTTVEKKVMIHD

On to `O=S(=O)(c1ccccc1)C1(CCCN2CCC3CCCCC3C2)CCC1` (racemic), for which the Ki in experiment [1] was 0.006 µM; in experiment [2], 0.21 µM; in experiment [4] it was 0.57 µM. The same compound returned an Activity in experiment [3] of 39%.

Regarding `O=S(=O)(c1ccccc1)C1(CCCN2CCOCC2)CCC1`, the Ki in experiment [1] was over 7 µM.

Consider `O=S(=O)(c1ccccc1)C1(CCCCN2CCC(c3ccccc3)C2)CCC1` (racemic), for which, in experiment [1], the Ki is 0.013 µM.

As for `CN(C)CCCC1(S(=O)(=O)c2ccccc2)CCC1`, the Ki in experiment [1] was over 7 µM.

On to `CCOC(=O)[C@@H]1CCCN(CCCC(C)(C)S(=O)(=O)c2ccccc2)C1`, for which the Ki is 0.024 µM in experiment [1]; over 7 µM in experiment [5]; 0.71 µM in experiment [6]; 2.4 µM in experiment [2]; 1.87 µM in experiment [4]; over 4000 nM⁻¹ in experiment [7]. This compound displayed an Activity in experiment [3] of 0%.

Turning to `CCOC(=O)[C@H]1CCCN(CCCC(C)(C)S(=O)(=O)c2ccccc2)C1`, the Ki in experiment [1] worked out at 0.455 µM.

With `O=S(=O)(c1ccccc1)C1(CCCN2CCN(c3ccccc3)CC2)CCC1`, in experiment [1], the Ki was 0.022 µM.

Turning to `CC(C)(CCCN1CCCC(c2cnco2)C1)S(=O)(=O)c1ccccc1` (racemic), the Ki was 0.015 µM in experiment [1]; over 5 µM in experiment [5]; 1.5 µM in experiment [6]; over 7 µM in experiment [2]; over 8 µM in experiment [8]; over 1 µM in experiment [4]. For the same compound, in experiment [7], the Ki is over 4000 nM⁻¹. This compound also gave an Activity in experiment [3] of 12%.

As to `O=S(=O)(c1ccccc1)C1(CCCN2CCc3ccccc3C2)CCC1`, the Ki in experiment [1] came to 0.008 µM; in experiment [2] it was 0.035 µM; in experiment [4], 0.065 µM. Further, the Activity in experiment [3] was 5%.

For the compound `CC1CCN(CCCC2(S(=O)(=O)c3ccccc3)CCC2)CC1`, in experiment [1], the Ki was determined as 0.55 µM.

For the compound `CC(C)(CCCN1CCCC(C(F)(F)F)C1)S(=O)(=O)c1ccccc1` (racemic), the Ki in experiment [1] is 0.054 µM; in experiment [5], over 7 µM; in experiment [6], over 1 µM; in experiment [2] it was over 7 µM; in experiment [8], over 5 µM; in experiment [4] it was over 2 µM. Besides, the Ki in experiment [7] was over 4000 nM⁻¹. The Activity in experiment [3] worked out at 0%.

Take `CC(C)(CCCN1CCCC(c2ccccc2)C1)S(=O)(=O)c1ccccc1` (racemic): the Ki was 0.007 µM in experiment [1]; 7.7 µM in experiment [5]; 0.22 µM in experiment [6]; 0.4 µM in experiment [2]; over 5 µM in experiment [8]; 1.8 µM in experiment [4]. The compound also showed a Ki in experiment [7] of 540 nM⁻¹. Also, the Activity in experiment [3] was 0%.

For `O=S(=O)(c1ccccc1)C1(CCCN2CCC(c3ccccc3)CC2)CCC1`, in experiment [1], the Ki was 0.026 µM.

Turning to `O=S(=O)(c1ccccc1)C1(CCCN2CCC(c3ccccc3)C2)CCC1` (racemic), the Ki in experiment [1] was 0.009 µM.

`O=S(=O)(c1ccccc1)C1(CCCN2CCCCC2)CCC1` yielded a Ki in experiment [1] of 2.7 µM.

On to `CC(C)(CCCN1CC[C@@H]2CCCC[C@H]2C1)S(=O)(=O)c1ccccc1` (racemic), for which the Ki was 0.008 µM in experiment [1]; over 7 µM in experiment [5]; 0.9 µM in experiment [6]; 1.5 µM in experiment [2]; over 4 µM in experiment [8]; 2 µM in experiment [4]. This compound returned a Ki in experiment [7] of 3900 nM⁻¹. Further, the Activity in experiment [3] was found to be 83%.

Turning to `O=S(=O)(c1ccccc1)C1(CCN2CCC(c3ccccc3)C2)CCC1` (racemic), in experiment [1], the Ki was 0.053 µM.

`O=S(=O)(CCCCN1CCC2CCCCC2C1)c1ccccc1` (racemic) displayed a Ki in experiment [1] of 0.096 µM.

Consider `CN1CCN(CCCC2(S(=O)(=O)c3ccccc3)CCC2)CC1`, for which the Ki in experiment [1] came to 5.8 µM.
